Patent publication US20100063008A1, “GELATINOUS ELASTOMER COMPOSITIONS” (Silipos, Inc., priority 2008, published 2010)

What was measured:
[1] = Exudation of active agents from gel specimens to filter paper discs, quantified by UV, MS, GC and/or HPLC after extraction; type: physicochemical; conditions: for Active Agent Transferred from Gel to Filters: 37° C., 0.40 psi; for Total Active Agent Exuded from Gel: cumulative
Method: Sample filter paper discs were placed in contact with gel specimens of same diameter under constant low pressure (0.40 psi. (2.8 Mpa)) at 37° C. Multiple time-controlled exposures of the filter paper to the gel were preformed in succession to same side of gel. Quantification of active agent transferred to the filter paper discs was determined by UV, MS, GC and or HPLC analysis after extraction of active agent from the filter paper. Exudation rates was expressed as μg/unit time per unit surface area.
This compound was then divided into three aliquots' of approximately 10 grams each and poured into a 2.625″ diameter aluminum petri dish and allowed to cool to create individual gel samle discs. Subsequently, absorbent cellulose filter blotter paper was die cut to enough 2.625″ diameter discs to be employed as a wicking media for repeated exposure in direct contact with the gel compound under specific conditions as follows.
(§1) Exposure Conditions: 37-40 deg. C., Sample filter paper discs in contact with gel specimens of same diameter were stacked in […]. aluminum petri dishes, gel specimen diameter 2.625″×0.125″ thick, filter paper disc diameter 2.625″ with another petri dish and a 1 kg dead weight on top of stack. Pressure calculated at ˜0.407 psi. (2.8 Mpa) constant. Two replicates per test condition. Repeat exposures at 3 hours then repeat three exposures of 18 hours each, changing discs but keeping same gel specimen and same side of each gel specimen in contact with each successive filter paper disc sample.
The filter paper disc specimens aa through kk were then sent to an analytical laboratory for HPLC and GC analysis along with a small sample of each individual raw ingredient so that the HPLC and GC equipment could be calibrated for the protocol being employed by the lab. This calibration allowed for determining the maximum recoverable (measurable) amount of each ingredient that could be measured using these techniques and would later be used to correct the data. The analytical laboratory then detected and measured the amount of each of the added active agents that was flushed out of the filter paper discs using wet chemistry techniques known to those skilled in the art.
The analytical data was interpreted, and the amounts of each ingredient which was exuded into each filter paper blotter disc specimen, and subsequently extracted using wet chemistry, were then entered into a data analysis spreadsheet and adjusted based on the Analytical Recovery Rate to determine actual concentration of each ingredient extracted.

[2] = Total weight of exudate (oil) absorbed by filter paper blotter discs and theoretical amount of each ingredient exuded; type: physicochemical
Method: as §1
Data was calculated to determine the total weight of exudate absorbed by each individual sample filter paper blotter disc test specimen. Calculations were then performed based upon the ratios of ingredients in the gel disc formula to determine the theoretical amount of each ingredient that could have been exuded from the oil if the oil contained the same ratio of ingredients as contained in the control oil sample and in the gel.

[3] = Gel Specimen Number 1, 1 h filter exposure, time 0-1 h
[4] = Gel Specimen Number 1, 3 h filter exposure, time 1-4 h
[5] = Gel Specimen Number 1, 18 h filter exposure, time 4-22 h
[6] = Gel Specimen Number 1, 18 h filter exposure, time 22-40 h
[7] = Gel Specimen Number 1, 18 h filter exposure, time 40-58 h
[8] = Gel Specimen Number 1, Time 1 h
[9] = Gel Specimen Number 1, Time 4 h
[10] = Gel Specimen Number 1, Time 22 h
[11] = Gel Specimen Number 1, Time 40 h
[12] = Gel Specimen Number 1, Time 58 h
[13] = Gel Specimen Number 2, 1 h filter exposure, time 0-1 h
[14] = Gel Specimen Number 2, 3 h filter exposure, time 1-4 h
[15] = Gel Specimen Number 2, 18 h filter exposure, time 4-22 h
[16] = Gel Specimen Number 2, 18 h filter exposure, time 22-40 h
[17] = Gel Specimen Number 2, 18 h filter exposure, time 40-58 h
[18] = Gel Specimen Number 2, Time 1 h
[19] = Gel Specimen Number 2, Time 4 h
[20] = Gel Specimen Number 2, Time 22 h
[21] = Gel Specimen Number 2, Time 40 h
[22] = Gel Specimen Number 2, Time 58 h
[23] = Specimen aa, Hours 1, Cummulative Hours 1
[24] = Specimen bb, Hours 1, Cummulative Hours 1
[25] = Specimen cc, Hours 3, Cummulative Hours 4
[26] = Specimen dd, Hours 3, Cummulative Hours 4
[27] = Specimen ee, Hours 18, Cummulative Hours 22
[28] = Specimen ff, Hours 18, Cummulative Hours 22
[29] = Specimen gg, Hours 18, Cummulative Hours 40
[30] = Specimen hh, Hours 18, Cummulative Hours 40
[31] = Specimen ii, Hours 18, Cummulative Hours 58
[32] = Specimen kk, Hours 18, Cummulative Hours 58

Ceramide III
Active Agent Transferred from Gel to Filters [1, 3]: 18 μg per filter | Active Agent Transferred from Gel to Filters [1, 4]: 18 μg per filter | Active Agent Transferred from Gel to Filters [1, 5]: 25 μg per filter | Active Agent Transferred from Gel to Filters [1, 6]: 29 μg per filter | Active Agent Transferred from Gel to Filters [1, 7]: 10 μg per filter | Total Active Agent Exuded from Gel [1, 8]: 18 µg | Total Active Agent Exuded from Gel [1, 9]: 35 µg | Total Active Agent Exuded from Gel [1, 10]: 60 µg | Total Active Agent Exuded from Gel [1, 11]: 89 µg | Total Active Agent Exuded from Gel [1, 12]: 99 µg | Active Agent Transferred from Gel to Filters [1, 13]: 20 μg per filter | Active Agent Transferred from Gel to Filters [1, 14]: 24 μg per filter | Active Agent Transferred from Gel to Filters [1, 15]: 22 μg per filter | Active Agent Transferred from Gel to Filters [1, 16]: 13 μg per filter | Active Agent Transferred from Gel to Filters [1, 17]: 20 μg per filter | Total Active Agent Exuded from Gel [1, 18]: 20 µg | Total Active Agent Exuded from Gel [1, 19]: 43 µg | Total Active Agent Exuded from Gel [1, 20]: 65 µg | Total Active Agent Exuded from Gel [1, 21]: 78 µg | Total Active Agent Exuded from Gel [1, 22]: 98 µg | Quantitative Analysis - Islechem u-gram extraction [1, 23]: 17 u-gram | Quantitative Analysis - Islechem u-gram extraction [1, 24]: 19 u-gram | Quantitative Analysis - Islechem u-gram extraction [1, 25]: 17 u-gram | Quantitative Analysis - Islechem u-gram extraction [1, 26]: 23 u-gram | Quantitative Analysis - Islechem u-gram extraction [1, 27]: 24 u-gram | Quantitative Analysis - Islechem u-gram extraction [1, 28]: 21 u-gram | Quantitative Analysis - Islechem u-gram extraction [1, 29]: 28 u-gram | Quantitative Analysis - Islechem u-gram extraction [1, 30]: 13 u-gram | Quantitative Analysis - Islechem u-gram extraction [1, 31]: 9.6 u-gram | Quantitative Analysis - Islechem u-gram extraction [1, 32]: 19 u-gram

CCCCCCCCCCCCCCCC(=O)OC/C=C(C)/C=C/C=C(C)/C=C/C1=C(C)CCCC1(C)C [Vit. A Palmitate, reference compound]
Estimated grams of ingredient exuded (theoretical amount from ratios of ingredients in the gel disc formula) ([2]; Sample aa, Test Disc 1, Exposed 1 hours): 0.0022 grams | Estimated grams of ingredient exuded (theoretical amount from ratios of ingredients in the gel disc formula) ([2]; Sample bb, Test Disc 1 Replicate, Exposed 1 hours): 0.0031 grams | Estimated grams of ingredient exuded (theoretical amount from ratios of ingredients in the gel disc formula) ([2]; Sample cc, Test Disc 2, Exposed 3 hours): 0.0024 grams | Estimated grams of ingredient exuded (theoretical amount from ratios of ingredients in the gel disc formula) ([2]; Sample dd, Test Disc 2 Replicate, Exposed 3 hours): 0.0035 grams | Estimated grams of ingredient exuded (theoretical amount from ratios of ingredients in the gel disc formula) ([2]; Sample ee, Test Disc 3, Exposed 18 hours): 0.0062 grams | Estimated grams of ingredient exuded (theoretical amount from ratios of ingredients in the gel disc formula) ([2]; Sample ff, Test Disc 3 Replicate, Exposed 18 hours): 0.0062 grams | Estimated grams of ingredient exuded (theoretical amount from ratios of ingredients in the gel disc formula) ([2]; Sample gg, Test Disc 4, Exposed 18 hours): 0.0064 grams | Estimated grams of ingredient exuded (theoretical amount from ratios of ingredients in the gel disc formula) ([2]; Sample hh, Test Disc 4 Replicate, Exposed 18 hours): 0.0057 grams | Estimated grams of ingredient exuded (theoretical amount from ratios of ingredients in the gel disc formula) ([2]; Sample ii, Test Disc 5, Exposed 18 hours): 0.0051 grams | Estimated grams of ingredient exuded (theoretical amount from ratios of ingredients in the gel disc formula) ([2]; Sample kk, Test Disc 5 Replicate, Exposed 18 hours): 0.0051 grams | Active Agent Transferred from Gel to Filters [1, 3]: 841 μg per filter | Active Agent Transferred from Gel to Filters [1, 4]: 977 μg per filter | Active Agent Transferred from Gel to Filters [1, 5]: 1955 μg per filter | Active Agent Transferred from Gel to Filters [1, 6]: 1682 μg per filter | Active Agent Transferred from Gel to Filters [1, 7]: 916 μg per filter | Total Active Agent Exuded from Gel [1, 8]: 841 µg | Total Active Agent Exuded from Gel [1, 9]: 1818 µg | Total Active Agent Exuded from Gel [1, 10]: 3773 µg | Total Active Agent Exuded from Gel [1, 11]: 5455 µg | Total Active Agent Exuded from Gel [1, 12]: 6370 µg | Active Agent Transferred from Gel to Filters [1, 13]: 1159 μg per filter | Active Agent Transferred from Gel to Filters [1, 14]: 1284 μg per filter | Active Agent Transferred from Gel to Filters [1, 15]: 1864 μg per filter | Active Agent Transferred from Gel to Filters [1, 16]: 1307 μg per filter | Active Agent Transferred from Gel to Filters [1, 17]: 1523 μg per filter | Total Active Agent Exuded from Gel [1, 18]: 1159 µg | Total Active Agent Exuded from Gel [1, 19]: 2443 µg | Total Active Agent Exuded from Gel [1, 20]: 4307 µg | Total Active Agent Exuded from Gel [1, 21]: 5614 µg | Total Active Agent Exuded from Gel [1, 22]: 7136 µg | Quantitative Analysis - Islechem u-gram extraction [1, 23]: 740 u-gram | Quantitative Analysis - Islechem u-gram extraction [1, 24]: 1020 u-gram | Quantitative Analysis - Islechem u-gram extraction [1, 25]: 860 u-gram | Quantitative Analysis - Islechem u-gram extraction [1, 26]: 1130 u-gram | Quantitative Analysis - Islechem u-gram extraction [1, 27]: 1720 u-gram | Quantitative Analysis - Islechem u-gram extraction [1, 28]: 1640 u-gram | Quantitative Analysis - Islechem u-gram extraction [1, 29]: 1480 u-gram | Quantitative Analysis - Islechem u-gram extraction [1, 30]: 1150 u-gram | Quantitative Analysis - Islechem u-gram extraction [1, 31]: 806 u-gram | Quantitative Analysis - Islechem u-gram extraction [1, 32]: 1340 u-gram

O=C(O)c1ccccc1O [Salicylic Acid, reference compound]
Active Agent Transferred from Gel to Filters [1, 3]: 372 μg per filter | Active Agent Transferred from Gel to Filters [1, 4]: 793 μg per filter | Active Agent Transferred from Gel to Filters [1, 5]: 4765 μg per filter | Active Agent Transferred from Gel to Filters [1, 6]: 6600 μg per filter | Active Agent Transferred from Gel to Filters [1, 7]: 4035 μg per filter | Total Active Agent Exuded from Gel [1, 8]: 372 µg | Total Active Agent Exuded from Gel [1, 9]: 1165 µg | Total Active Agent Exuded from Gel [1, 10]: 5929 µg | Total Active Agent Exuded from Gel [1, 11]: 12529 µg | Total Active Agent Exuded from Gel [1, 12]: 16565 µg | Active Agent Transferred from Gel to Filters [1, 13]: 705 μg per filter | Active Agent Transferred from Gel to Filters [1, 14]: 1459 μg per filter | Active Agent Transferred from Gel to Filters [1, 15]: 5153 μg per filter | Active Agent Transferred from Gel to Filters [1, 16]: 4976 μg per filter | Active Agent Transferred from Gel to Filters [1, 17]: 3941 μg per filter | Total Active Agent Exuded from Gel [1, 18]: 705 µg | Total Active Agent Exuded from Gel [1, 19]: 2164 µg | Total Active Agent Exuded from Gel [1, 20]: 7316 µg | Total Active Agent Exuded from Gel [1, 21]: 12293 µg | Total Active Agent Exuded from Gel [1, 22]: 16234 µg
